# Measurements: patent US20250099548A1, “PHARMACEUTICAL COMPOSITION FOR PREVENTING OR TREATING DEGENERATIVE BRAIN DISEASES, CONTAINING GLUCAGON-LIKE PEPTIDE-1 AND INTERLEUKIN-1 RECEPTOR ANTAGONIST” (GI INNOVATION, INC., priority 2022, published 2025)
# Tests used:
# Type in all cases: in vivo, mouse
# [1] = system: Tg-APP/PS1 mice; test: Novel object recognition test; conditions: Example 1, 1.2 mg/kg intraperitoneal, 4 times for 2 weeks from 6.5 months of age
# Description: (§1) The test substance was prepared by diluting GI210B1 obtained in Preparation Example 1 in saline, and it was intraperitoneally administered to 6.5-month-old Tg-APP/PS1 mice at a concentration of 1.2 mg/kg a total of 4 times for 2 weeks (FIG. 10).
# (§2) In the Tg-APP/PS1 mice intraperitoneally administered with GI210B1 at 6.5 months of age in Example 1.1 above, behavioral characteristics of cognitive function were evaluated at 7.5 to 8.0 months of age. In order to evaluate the behavioral characteristics of cognitive function, a novel object recognition test (NOR test), a passive avoidance test, and a water maze test were performed. At that time, the three experiments for behavioral evaluation were performed according to a method known in the art.
# All behavior evaluations were recorded with a computerized video-tracking system (SMART; Panlab S. I., Barcelona, Spain) and a webcam recording system (HD Webcam C210, Logitech, Newark, CA, USA). At that time, the background sound in the test room was set to 65 dB of white noise, and all behavioral tests were performed during the photoperiod (9 a.m. to 3 p.m.).
# Specifically, the mice prepared in Example 1.1 above were repeatedly exposed to two objects of the same shape twice at intervals of 10 minutes in an open field (familiarization). […] In addition, two hours after the habituation of the mice was completed, the mice were exposed to a novel object and an old object, and then the time taken for the mouse to recognize each object was measured [2-hour-NOR (novel object recognition) experiment]. Thereafter, the mice returned to their home cage, and then the location of one of the just-exposed objects was moved, and then object distinguishment and recognition time were measured [2-hour-NLR (novel position recognition) experiment]. Thereafter, 24 hours after the habituation of the mice was completed, the mice were exposed to another object and an old object, and then the time taken for the mouse to approach each object was measured (24-hour-NOR experiment). […]
# [2] = system: Tg-APP/PS1 mice; test: Passive avoidance test; conditions: Example 1; 72 and 120 hours after the shock; 1.2 mg/kg intraperitoneal, 4 times for 2 weeks
# Description: as §1, §2
# The passive avoidance test is a test to confirm fear/anxiety memory by associating spatial contextual cues and shock in mice for long periods of 24 hours, 72 hours, and 120 hours. The passive avoidance test is a cognitive behavior evaluation experiment conducted to confirm memories associated with spatial and contextual cues, specifically fear and anxiety. […]
# Specifically, mice have a tendency to prefer a dark place. […] The mice prepared in Example 1.1 were learned in the same manner as above, and the time for each step was measured.
# [3] = system: Tg-APP/PS1 mice; test: Water maze test; conditions: Example 1
# Description: as §1, §2
# The water maze test is a cognitive behavior evaluation experiment conducted to measure spatial perception learning ability and memory dependent on the hippocampus area of the brain. […]
# In addition, a hidden platform test was conducted on the 6th day. The hidden platform of the water maze was removed, and then the mouse was placed in the water maze and the location the mouse stayed for 60 seconds was recorded. At that time, the time and location that the mouse stayed in the four quadrants of the water maze for 60 seconds in the absence of a hidden platform were recorded. […]
# [4] = system: Tg-APP/PS1 mice; test: DCX immunochemical staining of hippocampal DG region; conditions: Example 1; GI210B1 1.2 mg/kg intraperitoneal, 4 times for 2 weeks
# From the text: DCX (doublecortin) is continuously expressed during the 2-3 weeks during which immature neurons mature, and is expressed in […]. For this reason, DCX is used as a marker of neurogenesis, indicating the degree of neuronal differentiation and after the metaphase of newly generated neurons.
# In order to confirm the effect of GI210B1 on the decreased neurogenesis in the DG (dentate gyrus) region of the hippocampus of Tg mice, the Tg-APP/PS1 mice administered with GI210B1 (Tg+GI210B1), the wild type mice (WT) as a normal group, and the Tg-APP/PS1 mice (Tg or Tg+Veh) as a control group were sacrificed, and then the brain tissue was extracted, and the DG region of the hippocampus was stained with DCX.
# In the same manner as in Example 1.4.2 above, the mice from each group were sacrificed, and then the brain tissue was extracted, and the DG region of the hippocampus was stained with DCX.
substance,measurement,setting,value
"GI210B1: fusion protein dimer comprising GLP-1 (SEQ ID NO: 2), IgG4 Fc domain and IL-1Ra; SEQ ID NO: 10","recognition of a novel object, 24-hour-NOR experiment",[1],recognized a novel object for a longer time at a similar level to the normal group (WT)
same,"time taken for the mouse to recognize an object whose location was changed, 2-hour-NLR experiment",[1],increased similar to the normal group
same,"time taken for the mouse to recognize a novel object, 2-hour-NOR experiment",[1]; tested at 7.5 to 8.0 months,increased similar to the normal group (WT)
same,moving to the dark chamber after foot shock,[2],had a tendency not to move to the dark chamber
same,"time in target quadrant, hidden platform test","[3]; 6th day, platform removed, 60 seconds",recognized for a longer time compared to the control group (Tg+Veh)
same,time taken for the mouse to learn and find the location of the hidden platform (spatial perception training),"[3]; training twice a day for 5 days, 1.2 mg/kg intraperitoneal, 4 times for 2 weeks","somewhat slower than that of the normal group, but faster than that of the control group (Tg+Veh)"
same,number of DCX positive cells in the DG region of the hippocampus,[4],"increased compared to the control group (Tg), and was recovered to a level similar to that of the normal group (WT)"
